Experimental data as given in PubChem BioAssay (NCI).
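Each compound was tested at five concentrations against cells in 96-well plates for 48 hours. Definition used: TGI = concentration required for complete inhibition of growth.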

How the values were obtained:
Assay in all cases: NCI anticancer screen, dose series, 48 h
[1] = test system: U251 CNS
[2] = test system: SF-268 CNS
[3] = test system: RXF 393 renal
[4] = test system: SK-MEL-28 melanoma
[5] = test system: HCC-2998 colon
[6] = test system: BT-549 breast
[7] = test system: NCI-H226 lung
[8] = test system: HOP-92 NSCLC
[9] = test system: HL-60(TB) leukemia
[10] = test system: CCRF-CEM leukemia
[11] = test system: HS 578T breast
[12] = test system: SW-620 colon
[13] = test system: OVCAR-5 ovarian
[14] = test system: PC-3 prostate
[15] = test system: UACC-257 melanoma
[16] = test system: SR leukemia
[17] = test system: SF-295 CNS
[18] = test system: MDA-MB-435
[19] = test system: NCI-H23 lung
[20] = test system: EKVX NSCLC
[21] = test system: K-562 leukemia
[22] = test system: IGROV1 ovarian
[23] = test system: MDA-N
[24] = test system: NCI/ADR-RES ovarian
[25] = test system: HCT-15 colon
[26] = test system: NCI-H522 lung
[27] = test system: ACHN renal
[28] = test system: SN12C renal
[29] = test system: M14 melanoma
[30] = test system: COLO 205 colon
[31] = test system: CAKI-1 renal
[32] = test system: T-47D breast
[33] = test system: NCI-H460 lung
[34] = test system: 786-0 renal
[35] = test system: OVCAR-3 ovarian
[36] = test system: A498 renal
[37] = test system: HOP-62 NSCLC
[38] = test system: OVCAR-4 ovarian
[39] = test system: MOLT-4 leukemia
[40] = test system: UO-31 renal
[41] = test system: HT29 colon
[42] = test system: OVCAR-8 ovarian
[43] = test system: MDA-MB-231 breast
[44] = test system: SNB-19 CNS
[45] = test system: TK-10 renal
[46] = test system: SK-MEL-5 melanoma
[47] = test system: A549 NSCLC
[48] = test system: KM12 colon
[49] = test system: LOX IMVI melanoma
[50] = test system: UACC-62 melanoma
[51] = test system: MCF7 breast
[52] = test system: HCT-116 colon
[53] = test system: SK-OV-3 ovarian
[54] = test system: MALME-3M melanoma
[55] = test system: DU-145 prostate
[56] = test system: RPMI-8226 leukemia
[57] = test system: SK-MEL-2 melanoma
[58] = test system: SF-539 CNS

O=C(Nc1nn(C(=O)c2ccc(Cl)cc2)c(=O)s1)c1ccc(Cl)cc1
TGI [1]: > 100 µM
TGI [2]: > 100 µM
TGI [3]: > 100 µM
TGI [4]: > 100 µM
TGI [5]: > 100 µM
TGI [6]: > 100 µM
TGI [7]: > 100 µM
TGI [8]: > 100 µM
TGI [9]: > 100 µM
TGI [10]: > 100 µM
TGI [11]: > 100 µM
TGI [12]: > 100 µM
TGI [13]: > 100 µM
TGI [14]: > 100 µM
TGI [15]: > 100 µM
TGI [16]: > 100 µM
TGI [17]: > 100 µM
TGI [18]: > 100 µM
TGI [19]: > 100 µM
TGI [20]: > 100 µM
TGI [21]: > 100 µM
TGI [22]: > 100 µM
TGI [23]: > 100 µM
TGI [24]: > 100 µM
TGI [25]: > 100 µM
TGI [26]: > 100 µM
TGI [27]: > 100 µM
TGI [28]: > 100 µM
TGI [29]: > 100 µM
TGI [30]: > 100 µM
TGI [31]: > 100 µM
TGI [32]: > 100 µM
TGI [33]: > 100 µM
TGI [34]: > 100 µM
TGI [35]: > 100 µM
TGI [36]: > 100 µM
TGI [37]: > 100 µM
TGI [38]: > 100 µM
TGI [39]: > 100 µM
TGI [40]: > 100 µM
TGI [41]: > 100 µM
TGI [42]: > 100 µM
TGI [43]: > 100 µM
TGI [44]: > 100 µM
TGI [45]: > 100 µM
TGI [46]: > 100 µM
TGI [47]: > 100 µM
TGI [48]: > 100 µM
TGI [49]: > 100 µM
TGI [50]: > 100 µM
TGI [51]: > 100 µM
TGI [52]: > 100 µM
TGI [53]: > 100 µM
TGI [54]: > 100 µM
TGI [55]: > 100 µM

Cc1ccc2c(c1)C(=O)N1CCC[C@H]1C=N2
TGI [1]: > 85.2 µM
TGI [2]: > 100 µM
TGI [3]: 16.1 µM
TGI [4]: 52 µM
TGI [5]: 45.6 µM
TGI [6]: 84.7 µM
TGI [8]: > 86.9 µM
TGI [10]: 22.6 µM
TGI [11]: 31.5 µM
TGI [12]: > 83.7 µM
TGI [13]: > 93.1 µM
TGI [14]: > 74.4 µM
TGI [15]: > 74.3 µM
TGI [16]: > 92.1 µM
TGI [17]: > 100 µM
TGI [18]: 33.2 µM
TGI [19]: 39.7 µM
TGI [20]: 71 µM
TGI [21]: > 100 µM
TGI [22]: > 66.3 µM
TGI [56]: > 53.3 µM
TGI [23]: 37.6 µM
TGI [24]: > 64 µM
TGI [25]: > 76.4 µM
TGI [57]: 34.9 µM
TGI [26]: 22.5 µM
TGI [27]: > 70.9 µM
TGI [28]: > 100 µM
TGI [29]: 47.8 µM
TGI [30]: 37.8 µM
TGI [31]: > 71.7 µM
TGI [32]: > 100 µM
TGI [33]: > 71.6 µM
TGI [34]: > 100 µM
TGI [35]: > 67.2 µM
TGI [36]: > 100 µM
TGI [37]: > 83.1 µM
TGI [38]: 53.8 µM
TGI [39]: > 84.1 µM
TGI [40]: > 67 µM
TGI [41]: > 55.6 µM
TGI [42]: > 100 µM
TGI [43]: > 66.5 µM
TGI [44]: > 100 µM
TGI [45]: 85.7 µM
TGI [46]: 26.7 µM
TGI [47]: > 100 µM
TGI [48]: 39.7 µM
TGI [58]: 37.3 µM
TGI [49]: > 100 µM
TGI [50]: 34.7 µM
TGI [51]: > 76.5 µM
TGI [52]: > 100 µM
TGI [53]: > 100 µM
TGI [54]: 35.2 µM
TGI [55]: > 100 µM
